US6767890B1, “Peptides having anti-cancer and anti-inflammatory activity” (priority 1998, dated 2004)
“And” between values parts separate entries of the source, which are not always exact repeats. Equal entries are not always repeated.

Tests used:
[1] = test system: croton oil-induced ear inflammation; assay: Mouse-ear edema model (croton oil); type: in vivo; details: 20 λ of 5% peptide in carbopol topically 30 min after 10% croton oil, ear biopsy weight at 24 hrs
Text: Mouse-ear edema model. Croton-oil, which contains a variety of phorbol esters, and arachidonic acid (AA) are standard inducers of inflammation in mouse ears when applied topically. Phorbol esters, especially phorbol myristyl acetate (PMA), activate one or more isozymes of the ubiquitous membrane receptor, protein kinase C (PKC), which in turn initiates several metabolic cascades leading to inflammation. As is a substrate for one of these cascades, leading to prostaglandin and leukotriene production, both of which are inflammatory. Inhibition of such inflammation by a putative bioactive agent is considered a generalized indicator of potential pharmacologic activity.
Male Swiss Webster mice (15-20 g) were purchased from B&K Universal, Kent, Wash. and maintained in the laboratory for one day prior to entering the experiment. At t=0, the ventral side of both ears of each mouse was challenged topically with 10 λ of 10% croton oil in acetone. […] The animals were sacrificed by cervical dislocation at t=24 hrs, the ears removed, and a biopsy take from each ear with an 8 mm punch. The biopsy was immediately weighed on a 4-place balance.

[2] = target: T1, Protease - Elastase (Homo sapiens, UniProt P08246); assay: Protease - Elastase enzyme assay; type: biochemical; details: 30.0 μM; average of duplicate; negative = stimulation
T1 construct: neutrophils; endogenous in cells; host or cells: human neutrophils
Method: (§1) The peptide was further screened in vitro in a variety of enzyme and biochemical assays. Methods employed were adapted from the scientific literature to maximize reliability and reproducibility. The primary literature reference for each assay is listed in Table 11 opposite the results for each assay.
(§2) Results presented in Table 10, “Results,” are the average of duplicate determinations, unless otherwise noted.
(§3) Reference compounds were tested concurrently at 5 concentrations as an integral part of each assay to ensure the validity of the results obtained.
(§4) Enzyme assays were performed under conditions described in Table 8, “Experimental Conditions.”. The commercial suppliers and catalog numbers of substrates employed in this study are given in Table 7, “Material Sources.” The name, commercial source, and catalog numbers of concurrent reference compounds (controls) employed in this study are given in Table 9, “Reference Compound Data.” The reaction catalyzed by each enzyme is listed in Table 8, “Experimental Conditions.”
(§5) Biochemical assay results are presented in Table 10, as the percent inhibition of specific binding or activity, and unless noted are the average of duplicate tubes tested at each concentration.

[3] = test system: DNBS-induced distal colitis; assay: Inflammation, Inflammatory Bowel Disease (DNBS distal colitis); type: in vivo, rat; details: PO, Peptide 30 mg/kg × 7, Sulfasalazine 300 mg/kg × 7
Method: (§6) For in vivo assay, distilled water and saline was used as vehicle in oral and intraperitoneal administration, respectively. Dosing volume was 20 ml/kg for mice or 10 ml/kg for rats.
Groups of 3 Sprague-Dawley derived male rats weighing 150±20 gms and fasted for 24 hours were used. Distal colitis was induced by intra-colonic instillation of DNBS (2,4-dinitrobenzene sulfonic acid, 30 mg in 0.5 ml ethanol 30%) after which air (2 ml) was gently injected through the cannula to ensure that the solution remains in the colon. Test substance was administered PO (30 mg/kg) at 24 and 2 hours before DNBS instillation. Then, the animals received test compound every 24 hours for 5 consecutive days. The control group was given vehicle alone as compound dosing pattern. The animals were sacrificed 24 hours after the final dose of test compound administration and each colon was removed and weighed. Colon-to-body weight ratio was obtained from the percentage of the comparison between the animal colon weight and body weight on the 8th day. A 30 percent or more (±30%) reduction in colon-to-body weight ratio relative to the vehicle treated control group was considered significant.

[4] = target: T2, 5-Lipoxygenase (Rattus norvegicus, UniProt P12527); assay: 5-Lipoxygenase enzyme assay; type: biochemical; details: 30.0 μM; average of duplicate; negative = stimulation
T2 construct: rat RBL-1 cells; endogenous in cells; host or cells: RBL-1 cells
Method: Unless otherwise indicated, the peptide was tested in duplicate at the concentrations indicated for each assay.

[5] = test system: PAF-induced mortality; assay: Platelet Activating Factor (PAF) Antagonism; type: in vivo, mouse; details: Peptide 100 mg/kg, WEB-2086 3 mg/kg
Method: as §6
Groups of 5 male ICR mice weighing 22±2 gms were employed. At dose of 100 mg/kg test substance dissolved in a vehicle of distilled water were administered orally. The control group received vehicle alone. At 60 minutes after dosing, the animals were injected intravenously PAF-acether ([…] IV, dissolved in 0.25% BSA). One hour later, the survival animals were recorded. The prevention of PAF-induced mortality in 50 percent or more (≧50%) of mice indicated significant activity.

[6] = test system: vasculature of chick embryos; assay: CAM assay; type: in vivo
Method: Method: The method used was that described in D. Knighton, D. Ausprunk, D. Tapper, and J. Folkman, “Avascular and Vascular Phases of Tumour Growth in the Chick Embryo.” J. Cancer 35:347-355 (1977) Procedure: The test compounds were suspended in sterile saline and then applied to methylcellulose discs, ¼ inch diameter with a micropipette and allowed to air dry at a concentration of 10 μg/disc.
The test was graded as follows:
The following scores are based on the observation of at least 10 chick embryos.

[7] = target: T3, Collagenase IV (Homo sapiens, UniProt P14780); assay: Collagenase IV enzyme assay; type: biochemical; details: 100.0 μM; average of duplicate; negative = stimulation
T3 construct: human U937; endogenous in cells; host or cells: U937 cells
Method: as §1, §2, §3, §4, §5

T2 sequence (P12527 whole entry): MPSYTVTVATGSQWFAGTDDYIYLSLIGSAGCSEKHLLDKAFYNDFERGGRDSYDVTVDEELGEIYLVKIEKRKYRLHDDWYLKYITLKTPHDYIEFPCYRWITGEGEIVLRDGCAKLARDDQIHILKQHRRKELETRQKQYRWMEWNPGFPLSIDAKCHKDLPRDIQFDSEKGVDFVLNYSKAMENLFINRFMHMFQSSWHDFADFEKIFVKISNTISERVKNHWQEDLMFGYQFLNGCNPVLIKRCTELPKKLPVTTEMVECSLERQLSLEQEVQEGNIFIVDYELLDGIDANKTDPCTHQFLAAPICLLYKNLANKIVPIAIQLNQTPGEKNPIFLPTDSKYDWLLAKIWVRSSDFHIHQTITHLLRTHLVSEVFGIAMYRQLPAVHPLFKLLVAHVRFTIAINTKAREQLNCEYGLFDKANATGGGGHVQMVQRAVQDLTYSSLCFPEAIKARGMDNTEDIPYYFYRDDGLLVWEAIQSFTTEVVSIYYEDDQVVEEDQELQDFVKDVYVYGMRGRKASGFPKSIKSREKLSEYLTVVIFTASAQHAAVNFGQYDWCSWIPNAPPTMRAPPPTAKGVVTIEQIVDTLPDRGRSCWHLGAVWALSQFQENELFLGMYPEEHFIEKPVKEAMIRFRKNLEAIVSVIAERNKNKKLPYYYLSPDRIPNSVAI
T3 sequence (P14780 94-707): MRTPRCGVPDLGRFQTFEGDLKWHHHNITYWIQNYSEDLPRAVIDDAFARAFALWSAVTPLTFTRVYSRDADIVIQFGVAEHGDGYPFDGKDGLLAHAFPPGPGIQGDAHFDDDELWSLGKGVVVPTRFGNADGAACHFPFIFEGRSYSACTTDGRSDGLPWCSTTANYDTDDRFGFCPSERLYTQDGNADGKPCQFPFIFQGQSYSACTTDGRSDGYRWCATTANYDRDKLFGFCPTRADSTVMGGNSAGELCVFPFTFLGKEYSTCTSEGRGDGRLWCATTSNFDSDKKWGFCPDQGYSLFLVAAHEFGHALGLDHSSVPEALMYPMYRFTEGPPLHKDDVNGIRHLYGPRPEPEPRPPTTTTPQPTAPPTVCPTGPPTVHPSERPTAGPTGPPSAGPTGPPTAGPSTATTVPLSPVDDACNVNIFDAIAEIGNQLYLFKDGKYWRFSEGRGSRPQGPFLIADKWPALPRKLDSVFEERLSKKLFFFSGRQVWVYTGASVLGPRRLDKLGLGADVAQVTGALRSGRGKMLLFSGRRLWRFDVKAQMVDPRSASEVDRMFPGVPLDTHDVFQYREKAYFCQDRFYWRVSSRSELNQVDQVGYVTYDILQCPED
T1 sequence (P08246 30-267): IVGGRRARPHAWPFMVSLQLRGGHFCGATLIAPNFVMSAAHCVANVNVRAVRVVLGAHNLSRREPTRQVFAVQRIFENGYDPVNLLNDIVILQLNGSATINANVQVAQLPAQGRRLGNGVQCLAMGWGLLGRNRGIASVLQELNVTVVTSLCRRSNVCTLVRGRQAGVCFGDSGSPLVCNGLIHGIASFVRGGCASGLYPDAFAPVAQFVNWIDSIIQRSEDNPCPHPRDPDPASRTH

LEU-PRO-PRO-SER-ARG [Peptide] was tested, and the “reduction in swelling compared to vehicle-only treated ears” value [1] was 61%, the “% Inhibition” value [2] was −11% and the “Ratio Net” value ([3]; group mean minus blank-control) was 0.276%. For the same substance, the “Ratio Ind., X (group mean)” value ([3]; group mean) was 0.646%, the “Ratio Ind. (colon-to-body weight ratio)” value ([3]; individual rat, Colon (g)/8th B.W. × 100%) was 0.683% and 0.608% and the “% INH.” value ([3]; reduction in colon-to-body weight ratio relative to vehicle control) was 22%. The “% Inhibition” value [4] was 0%, the “% Protection” value ([5]; PO one hour before PAF-acether 100 μg/kg IV) was 0% and the “No. of Survival” value ([5]; of 5 mice, one hour after PAF-acether 100 μg/kg IV, PO one hour before) was 0. For the same substance, the “CAM assay antiangiogenesis score” value ([6]; 10 μg/disc on methylcellulose discs, at least 10 chick embryos, graded 0 to +4) was 3.6, the “inhibited proliferation of vacularization” value ([6]; CAM assay, 10 μg/disc) was “approximately 95%” and the “% Inhibition” value [7] was 2%.
